# Measurements taken from US20240325386A1, “THERAPEUTIC AGENT FOR COVID-19” (FUJIFILM Toyama Chemical Co., Ltd., priority 2021, published 2024).
# Read-outs that look alike come from different tables or passages of the source.
# Assays:
# SARS-CoV-2 [1] = assay type: in vivo
# SARS-CoV-2 [2] = conditions: Japanese phase III clinical study, as reported in Non-patent Literature 4 (news release); cited from earlier work
# [3] = mITT, N = 107, improvement in body temperature, SpO2, chest imaging and SARS-CoV-2 negative conversion
structure (smiles),measurement,setting,value
"NC(=O)c1nc(F)cnc1O [Compound A, 6-fluoro-3-hydroxy-2-pyrazinecarboxamide]",median time to improvement shorter than in the control group,"SARS-CoV-2 [1]; mITT, Compound A group 107 patients vs control group 49 patients",approximately 3 days
same,Patients with improvement,"SARS-CoV-2 [1]; mITT, Compound A group N = 107, 1,800 mg BID Day 1 + 800 mg BID up to 13 days, oral, plus standard of care",81
same,Median time to improvement in 25% of patients,SARS-CoV-2 [1]; [3],7.8 days
same,Median time to improvement in 50% of patients,SARS-CoV-2 [1]; [3],11.9 days
same,Median time to improvement in 75% of patients,SARS-CoV-2 [1]; [3],15.6 days
same,median time to improvement shorter than in the control group,SARS-CoV-2 [1]; subgroup of patients testing negative for both IgG antibody and IgA antibody,approximately 5 days
same,"time to improvement of body temperature, SpO2, chest image findings and SARS-CoV-2 negative conversion (primary endpoint) shorter than in the control group",SARS-CoV-2 [2],approximately 3 days
